Data taken from EP1591123A1, “USES OF NARINGENIN, NARINGIN AND SALTS THEREOF AS EXPECTORANTS IN THE TREATMENT OF COUGH, AND COMPOSITIONS THEREOF” (Su, Wei-wei, priority 2003, dated 2004).
Where a name gives a salt, the structure may show the parent alone.

What was measured:
mice = experiment: Antitussive test of Naringenin, spray by high concentration ammonia (Example 30); format: in vivo; settings: sample concentration 1.5 mg/ml
Description: 1. Animal: 120 healthy male mice weighing 19.5-22.1g was grouped into 8 groups random after labeled, which was selected from 130 male mice weighing 19.3-22.6g. Every group was 15 mice. Eight group were set including negative control group, positive control group, high dose group of Naringenin, middle dose group of Naringenin, low dose group of Naringenin, high dose group of sodium salt of Naringenin, middle dose group of sodium salt of Naringenin, low dose group of sodium salt of Naringenin.
• 1) Blank control group: physiological saline, 0.9% NaCl; • 2) Positive control group: 30mg Dextromethorphan Hydrobromide was dissolve into 20 ml physiological saline and the sample concentration was 1.5 mg/ml to obtain the solution for positive control. • 3) low dose group of Naringenin: weighting out the appropriate amount of Naringenin and dissolving it in physiological saline, then the sample concentration was 0.5 mg/ml. • 4) middle dose group of Naringenin: weighting out the appropriate amount of Naringenin and dissolving it in physiological saline, then the sample concentration was 1.5mg/ml. • 5) high dose group of Naringenin: weighting out the appropriate amount of Naringenin and dissolving it in physiological saline, then the sample concentration was 4.5 mg/ml. • 6) low dose group of sodium salt of Naringenin: weighting out the appropriate amount of sodium salt of Naringenin and dissolving it in physiological saline, then the sample concentration was 0.5 mg/ml. • 7) middle dose group of sodium salt of Naringenin: weighting out the appropriate amount of sodium salt of Naringenin and dissolving it in physiological saline, then the sample concentration was 1.5 mg/ml. • 8) high dose group of sodium salt of Naringenin: weighting out the appropriate amount of sodium salt of Naringenin and dissolving it in physiological saline, then the sample concentration was 4.5 mg/ml.
Animals were oral administered, and were sprayed one hour later. After the spray took out the animals and observed the tussive action. Observed the time of tussis in one minutes, if it appeared typical tussis three times in one minutes(shrinking the abdomen muscle or shrinking chest, puffing mouth at the same time, sometimes appearing tussive sound), we consider it "appearing tussis", otherwise "no tussis".
We calculated the spraying time that half of mice were tusisive by sequential method. And calculated the R, the drug was provided with effect of relieve a cough if R>130%. The drug was provided with remarkable effect of relieve a cough if R>150%. Underside is expressions: R=(EDT50 of the treatment)/(EDT50 of the control)× 100% [formula] EDT50=log^-1c/n ('n' is the number of animal, 'c' is the sum of 'rx' value, 'r' is the number of animal in every group, 'x' is the logarithm of dose(namely spray time).)

NIH mice = experiment: Antitussive test of Naringin, spraying with concentrated ammonia liquor (Example 28); format: in vivo; settings: 0.2 ml/20g of 1.5 mg/ml
Description: 1.Animals: As the stock animals, totally 130 NIH mice, male, each weighed 18.2~21.7g within ordinary standard. Weigh and number each mice accurately first, then pick out the 120 healthy ones who weighed in range from 18.5~21.0g. Ranked in weigh, they were divided into 8 groups in random with each 15. Set up reference groups of negative and positive, and sample groups of high-dose, mid-dose, low-dose Naringin and sodium Naringinate.
• 1) Blank control group: physiological saline, 0.9% NaCl; • 2) Positive control group: 30 mg dextromethorphan hydrobromide was weighed into a 20ml volumetric flask, and physiological saline was accurately added to the volume to obtain the solution for positive control at concentration of 5mg/ml° • 3) Group of low-dose sample Naringin: Proper amount of Naringin was weighed into a suitable volumetric flask, and physiological saline was added to the volume to obtain the solution at concentration of 0.5mg/ml. • 4) Group of mid-dose sample Naringin: Proper amount of Naringin was weighed into a suitable volumetric flask, and physiological saline was added to the volume to obtain the solution at concentration of 1.5mg/ml. • 5) Group of high-dose sample Naringin: Proper amount of Naringin was weighed into a suitable volumetric flask, and physiological saline was added to the volume to obtain the solution at concentration of 4.5mg/ml. • 6) Group of low-dose sample sodium Naringinate: Proper amount of sodium Naringin was weighed into a suitable volumetric flask, and physiological saline was added to the volume to obtain the solution at concentration of 0.5mg/ml. • 7) Group of mid-dose sample sodium Naringinate: Proper amount of sodium Naringin was weighed into a suitable volumetric flask, and physiological saline was added to the volume to obtain the solution at concentration of 1.5mg/ml. • 8) Group of high-dose sample sodium Naringinate: Proper amount of sodium Naringin was weighed into a suitable volumetric flask, and physiological saline was added to the volume to obtain the solution at concentration of4.5mg/ml.
One hour after intra-gastrointestinal administering for the mice, spray with concentrated ammonia liquor for certain intervals. Immediately the spraying was over, put away the mice outside and observe the tussive action. Mark down the times for which they coughed within 1 minute. Only when they coughed, which was characteristic of compression of abdomen or chest with their mouths open, and making coughing noise, for more than 3 times within a minute, tussive action could be admitted.
Calculate the median effective dose(EDT50) with sequential trials. Work out the amount of R with the formula below. If R is greater than 130%, it means the drug will be effective on antitussive action. If R is greater than 150%, it means the drug will be remarkably effective on antitussive action. The formula is shown as below: R =(EDT50 of the treatmnet)/(EDT50 of the control)× 100% [formula] EDT50=log-1c/n(n for amount of animals, c for summation of rx, r for amount of animals in each group, x for logarithm of the dose (time for spraying) )

[1] = EDT50 of the treatment / EDT50 of the control x 100%

## COc1ccc2c(c1)[C@]13CCCC[C@@H]1[C@H](C2)N(C)CC3 [Dextromethorphan Hydrobromide, reference compound]
mice; [1]
  R Value: 138.05%
mice; mice, oral, dose 0.2 (mg/20g), spray one hour later
  EDT50: 53.70 s
mice
  Effect of relieving cough: effect (the drug was provided with effect of relieve a cough if R>130%)
NIH mice
  Effect of relieving cough: effective (If R is greater than 130%, it means the drug will be effective on antitussive action)
NIH mice; [1]
  R Value: 140.23%
NIH mice; mice, intra-gastrointestinal, ammonia spray 1 hour after dosing
  EDT50: 56.82 s
